Each structure is given as a SMILES string.

The subject of data set [1] is Brain. Briefly: Drug concentration in Sprague-Dawley rat brain assessed as 6-(5-chloropyrimidin-2-yl)-3-(4-(2-hydroxy-2-methylpropoxy)-3-methoxyphenyl)pyrrolo[1,2-f][1,2,4]triazin-4(3H)-one level at 5 mg/kg, po qd at 8 hrs. The class given is ADME, organism-based. The settings on record: in vivo, read-out: Drug uptake.
The subject of data set [2] is Plasma. Briefly: Plasma concentration in Sprague-Dawley rat assessed as 6-(5-chloropyrimidin-2-yl)-3-(4-(2-hydroxy-2-methylpropoxy)-3-methoxyphenyl)pyrrolo[1,2-f][1,2,4]triazin-4(3H)-one level at 5 mg/kg, po qd at 8 hrs. The settings on record: in vivo. The format is ADME, organism-based.
Data set [3] concerns Nucleic Acid. Briefly: Ratio of drug level in Sprague-Dawley rat brain to plasma assessed as 6-(5-chloropyrimidin-2-yl)-3-(4-(2-hydroxy-2-methylpropoxy)-3-methoxyphenyl)pyrrolo[1,2-f][1,2,4]triazin-4(3H)-one level at 5 mg/kg, po qd. The format is ADME, organism-based.
Data set [4] concerns Nucleic Acid. As to the kind of experiment: Ratio of drug level in Sprague-Dawley rat brain to plasma assessed as 6-(5-chloropyrimidin-2-yl)-3-(4-((3,3-difluoro-1-hydroxycyclobutyl)methoxy)-3-methoxyphenyl)pyrrolo[1,2-f][1,2,4]triazin-4(3H)-one level at 10 mg/kg, po qd. The format is ADME, organism-based.
Data set [5] relates to Brain. As to the kind of experiment: Drug concentration in Sprague-Dawley rat brain assessed as 6-(5-chloropyrimidin-2-yl)-3-(4-((3,3-difluoro-1-hydroxycyclobutyl)methoxy)-3-methoxyphenyl)pyrrolo[1,2-f][1,2,4]triazin-4(3H)-one level at 10 mg/kg, po qd at 8 hrs. The format is ADME, organism-based. The settings on record: in vivo, read-out: Drug uptake.
The subject of data set [6] is Plasma. Briefly: Plasma concentration in Sprague-Dawley rat assessed as 6-(5-chloropyrimidin-2-yl)-3-(4-((3,3-difluoro-1-hydroxycyclobutyl)methoxy)-3-methoxyphenyl)pyrrolo[1,2-f][1,2,4]triazin-4(3H)-one level at 10 mg/kg, po qd at 8 hrs. The format is ADME, organism-based. The settings on record: in vivo.
Data set [7] deals with Brain. As to the kind of experiment: Drug concentration in Sprague-Dawley rat brain assessed as (R)-6-(5-chloropyridin-2-yl)-3-(4-(2-cyclopropyl-2-hydroxyethoxy)-3-methoxyphenyl)pyrrolo[1,2-f][1,2,4]triazin-4(3H)-one level at 10 mg/kg, po qd at 8 hrs. The format is ADME, organism-based. The settings on record: in vivo, read-out: Drug uptake.
The test system of data set [8] is Plasma. Briefly: Plasma concentration in Sprague-Dawley rat assessed as (R)-6-(5-chloropyridin-2-yl)-3-(4-(2-cyclopropyl-2-hydroxyethoxy)-3-methoxyphenyl)pyrrolo[1,2-f][1,2,4]triazin-4(3H)-one level at 10 mg/kg, po qd at 8 hrs. The settings on record: in vivo. The class given is ADME, organism-based.
Data set [9] has as its system Nucleic Acid. As to the kind of experiment: Ratio of drug level in Sprague-Dawley rat brain to plasma assessed as (R)-6-(5-chloropyridin-2-yl)-3-(4-(2-cyclopropyl-2-hydroxyethoxy)-3-methoxyphenyl)pyrrolo[1,2-f][1,2,4]triazin-4(3H)-one level at 10 mg/kg, po qd. The format is ADME, organism-based.
The subject of data set [10] is Rattus norvegicus. Briefly: Antiobesity activity in Sprague-Dawley rat assessed as body weight reduction at 30 mg/kg, po qd after 4 days relative to control. The class given is functional. The settings on record: 96 h.
Data set [11] relates to Rattus norvegicus. Briefly: Antiobesity activity in Sprague-Dawley rat assessed as body weight reduction at 3 mg/kg, po qd after 4 days relative to control. The class given is functional. The settings on record: 96 h.
Data set [12] is described as follows: Ratio of free drug level in brain of Sprague-Dawley rat assessed as 6-(4-chlorophenyl)-3-(4-(2-cyclopropyl-2-hydroxyethoxy)-3-methoxyphenyl)pyrrolo[1,2-f][1,2,4]triazin-4(3H)-one level at 30 mg/kg, po to Ki for rat MCHR1. The settings on record: in vivo. The class given is ADME, organism-based.
Data set [13] can be described thus: Ratio of free drug level in brain of Sprague-Dawley rat assessed as 6-(4-chlorophenyl)-3-(4-(2-cyclopropyl-2-hydroxyethoxy)-3-methoxyphenyl)pyrrolo[1,2-f][1,2,4]triazin-4(3H)-one level at 3 mg/kg, po to Ki for rat MCHR1. The format is ADME, organism-based. The settings on record: in vivo.
For data set [14], the system named is Plasma. Briefly: Fraction unbound in Sprague-Dawley rat plasma assessed as 6-(4-chlorophenyl)-3-(4-(2-cyclopropyl-2-hydroxyethoxy)-3-methoxyphenyl)pyrrolo[1,2-f][1,2,4]triazin-4(3H)-one level. The format is ADME, cell-free.
Data set [15] deals with Brain. As to the kind of experiment: Free drug level in Sprague-Dawley rat brain assessed as 6-(4-chlorophenyl)-3-(4-(2-cyclopropyl-2-hydroxyethoxy)-3-methoxyphenyl)pyrrolo[1,2-f][1,2,4]triazin-4(3H)-one level at 10 mg/kg, po qd at 20 hrs. The format is ADME, organism-based. The settings on record: in vivo.
Data set [16] has as its system Brain. As to the kind of experiment: Drug concentration in Sprague-Dawley rat brain assessed as 6-(4-chlorophenyl)-3-(4-(2-cyclopropyl-2-hydroxyethoxy)-3-methoxyphenyl)pyrrolo[1,2-f][1,2,4]triazin-4(3H)-one level at 10 mg/kg, po qd at 20 hrs. The settings on record: in vivo, read-out: Drug uptake. The class given is ADME, organism-based.
Data set [17] can be described thus: Ratio of free drug level in brain of Sprague-Dawley rat assessed as 6-(4-chlorophenyl)-3-(4-(2-cyclopropyl-2-hydroxyethoxy)-3-methoxyphenyl)pyrrolo[1,2-f][1,2,4]triazin-4(3H)-one level at 10 mg/kg, po to Ki for rat MCHR1. The class given is ADME, organism-based. The settings on record: in vivo.
The test system of data set [18] is Brain. Briefly: Drug concentration in Sprague-Dawley rat brain assessed as 6-(4-chlorophenyl)-3-(4-(2-cyclopropyl-2-hydroxyethoxy)-3-methoxyphenyl)pyrrolo[1,2-f][1,2,4]triazin-4(3H)-one level at 30 mg/kg, po qd at 20 hrs. The class given is ADME, organism-based. The settings on record: in vivo, read-out: Drug uptake.
For data set [19], the system named is Plasma. Briefly: Plasma concentration in Sprague-Dawley rat assessed as 6-(4-chlorophenyl)-3-(4-(2-cyclopropyl-2-hydroxyethoxy)-3-methoxyphenyl)pyrrolo[1,2-f][1,2,4]triazin-4(3H)-one level at 10 mg/kg, po qd at 8 hrs. The format is ADME, organism-based. The settings on record: in vivo.
For data set [20], the system named is Nucleic Acid. Briefly: Ratio of drug level in Sprague-Dawley rat brain to plasma assessed as 6-(4-chlorophenyl)-3-(4-(2-cyclopropyl-2-hydroxyethoxy)-3-methoxyphenyl)pyrrolo[1,2-f][1,2,4]triazin-4(3H)-one level at 10 mg/kg, po qd. The format is ADME, organism-based.
Data set [21] has as its system Brain. Briefly: Drug concentration in Sprague-Dawley rat brain assessed as 6-(4-chlorophenyl)-3-(4-(2-cyclopropyl-2-hydroxyethoxy)-3-methoxyphenyl)pyrrolo[1,2-f][1,2,4]triazin-4(3H)-one level at 3 mg/kg, po qd at 20 hrs. The format is ADME, organism-based. The settings on record: in vivo, read-out: Drug uptake.
Data set [22] has as its system Brain. Briefly: Free drug level in Sprague-Dawley rat brain assessed as 6-(4-chlorophenyl)-3-(4-(2-cyclopropyl-2-hydroxyethoxy)-3-methoxyphenyl)pyrrolo[1,2-f][1,2,4]triazin-4(3H)-one level at 30 mg/kg, po qd at 20 hrs. The format is ADME, organism-based. The settings on record: in vivo.
For data set [23], the system named is Rattus norvegicus. Briefly: Antiobesity activity in Sprague-Dawley rat assessed as body weight reduction at 10 mg/kg, po qd after 4 days relative to control. The class given is functional. The settings on record: 96 h.
Data set [24] concerns Brain. Briefly: Drug concentration in Sprague-Dawley rat brain assessed as 6-(4-chlorophenyl)-3-(4-(2-cyclopropyl-2-hydroxyethoxy)-3-methoxyphenyl)pyrrolo[1,2-f][1,2,4]triazin-4(3H)-one level at 10 mg/kg, po qd at 8 hrs. The settings on record: in vivo, read-out: Drug uptake. The format is ADME, organism-based.
Data set [25] deals with Brain. Briefly: Free drug level in Sprague-Dawley rat brain assessed as 6-(4-chlorophenyl)-3-(4-(2-cyclopropyl-2-hydroxyethoxy)-3-methoxyphenyl)pyrrolo[1,2-f][1,2,4]triazin-4(3H)-one level at 3 mg/kg, po qd at 20 hrs. The class given is ADME, organism-based. The settings on record: in vivo.
For data set [26], the system named is Plasma. As to the kind of experiment: Plasma concentration in Sprague-Dawley rat assessed as ((R)-6-(5-chloropyridin-2-yl)-3-(4-(3-hydroxypyrrolidin-1-yl)-3-methoxyphenyl)pyrrolo[1,2-f][1,2,4]triazin-4(3H)-one level at 10 mg/kg, po qd at 8 hrs. The settings on record: in vivo. The class given is ADME, organism-based.
The subject of data set [27] is Nucleic Acid. As to the kind of experiment: Ratio of drug level in Sprague-Dawley rat brain to plasma assessed as ((R)-6-(5-chloropyridin-2-yl)-3-(4-(3-hydroxypyrrolidin-1-yl)-3-methoxyphenyl)pyrrolo[1,2-f][1,2,4]triazin-4(3H)-one level at 10 mg/kg, po qd. The class given is ADME, organism-based.
Data set [28] deals with Brain. Briefly: Drug concentration in Sprague-Dawley rat brain assessed as ((R)-6-(5-chloropyridin-2-yl)-3-(4-(3-hydroxypyrrolidin-1-yl)-3-methoxyphenyl)pyrrolo[1,2-f][1,2,4]triazin-4(3H)-one level at 10 mg/kg, po qd at 8 hrs. The settings on record: in vivo, read-out: Drug uptake. The class given is ADME, organism-based.
Data set [29] concerns Brain. Briefly: Drug concentration in Sprague-Dawley rat brain assessed as (S)-6-(5-chloropyrimidin-2-yl)-3-(4-(3-(ethylsulfonyl)-2-hydroxypropoxy)-3-methoxyphenyl)pyrrolo[1,2-f][1,2,4]triazin-4(3H)-one level at 10 mg/kg, po qd at 8 hrs. The class given is ADME, organism-based. The settings on record: in vivo, read-out: Drug uptake.
In data set [30] the test system is Nucleic Acid. As to the kind of experiment: Ratio of drug level in Sprague-Dawley rat brain to plasma assessed as (S)-6-(5-chloropyrimidin-2-yl)-3-(4-(3-(ethylsulfonyl)-2-hydroxypropoxy)-3-methoxyphenyl)pyrrolo[1,2-f][1,2,4]triazin-4(3H)-one level at 10 mg/kg, po qd. The format is ADME, organism-based.
Data set [31] relates to Plasma. As to the kind of experiment: Plasma concentration in Sprague-Dawley rat assessed as (S)-6-(5-chloropyrimidin-2-yl)-3-(4-(3-(ethylsulfonyl)-2-hydroxypropoxy)-3-methoxyphenyl)pyrrolo[1,2-f][1,2,4]triazin-4(3H)-one level at 10 mg/kg, po qd at 8 hrs. The format is ADME, organism-based. The settings on record: in vivo.
For data set [32], the system named is Plasma. Briefly: Plasma concentration in Sprague-Dawley rat assessed as (S)-6-(5-chloropyridin-2-yl)-3-(4-(3-(ethylsulfonyl)-2-hydroxypropoxy)-3-methoxyphenyl)pyrrolo[1,2-f][1,2,4]triazin-4(3H)-one level at 10 mg/kg, po qd at 8 hrs. The class given is ADME, organism-based. The settings on record: in vivo.
Data set [33] has as its system Brain. Briefly: Drug concentration in Sprague-Dawley rat brain assessed as (S)-6-(5-chloropyridin-2-yl)-3-(4-(3-(ethylsulfonyl)-2-hydroxypropoxy)-3-methoxyphenyl)pyrrolo[1,2-f][1,2,4]triazin-4(3H)-one level at 10 mg/kg, po qd at 8 hrs. The settings on record: in vivo, read-out: Drug uptake. The format is ADME, organism-based.
Data set [34] concerns Nucleic Acid. As to the kind of experiment: Ratio of drug level in Sprague-Dawley rat brain to plasma assessed as (S)-6-(5-chloropyridin-2-yl)-3-(4-(3-(ethylsulfonyl)-2-hydroxypropoxy)-3-methoxyphenyl)pyrrolo[1,2-f][1,2,4]triazin-4(3H)-one level at 10 mg/kg, po qd. The format is ADME, organism-based.

Consider `COc1cc(-n2cnn3cc(-c4ncc(Cl)cn4)cc3c2=O)ccc1OCC(C)(C)OC(=O)CN`, for which the concentration is 1430 nM with Brain [1] and 2710 nM with Plasma [2]. The BPR with Nucleic Acid [3] was 0.5.
Take `COc1cc(-n2cnn3cc(-c4ncc(Cl)cn4)cc3c2=O)ccc1OCC1(OC(=O)CN)CC(F)(F)C1`: the BPR in the data set with Nucleic Acid [4] is 0.7. The concentration in the data set on Brain [5] worked out at 805 nM; with Plasma [6], 1130 nM.
Take `COc1cc(-n2cnn3cc(-c4ccc(Cl)cn4)cc3c2=O)ccc1OC[C@H](OC(=O)CN)C1CC1`: the concentration with Brain [7] was 1150 nM; in the data set with Plasma [8] it was 7450 nM. Moreover, the BPR in the data set on Nucleic Acid [9] was 0.2.
With `COc1cc(-n2cnn3cc(-c4ccc(Cl)cc4)cc3c2=O)ccc1OCC(OC(=O)[C@@H](N)C(C)C)C1CC1` (some centres undefined), the inhibition in vivo (commonly how much of the control response was suppressed) at 30 mg/kg with Rattus norvegicus [10] was 2.5%. The inhibition in vivo at 3 mg/kg with Rattus norvegicus [11] was determined as 0%. Also, the Ratio came to 16 in data set [12], 3.6 in data set [13] and 8.6 in [17]. Besides, the Fu with Plasma [14] was 0.3%. Also, the results for the “Drug uptake(free)” value with Brain [15], with Brain [22] and in the data set on Brain [25] were 24 nM, 44 nM and 10 nM, respectively. Also, the concentration is 7980 nM in the data set on Brain [16]; 14800 nM with Brain [18]; 1250 nM in the data set on Plasma [19]; 3420 nM in the data set with Brain [21]; 3740 nM with Brain [24]. In the data set on Nucleic Acid [20], the BPR turned out to be 3. The inhibition in vivo at 10 mg/kg in the data set with Rattus norvegicus [23] worked out at 0%.
With `COc1cc(-n2cnn3cc(-c4ccc(Cl)cn4)cc3c2=O)ccc1N1CC[C@@H](OC(=O)[C@@H](N)C(C)C)C1`, the concentration with Plasma [26] stood at 4590 nM; in the data set with Brain [28], 664 nM. Moreover, in the data set with Nucleic Acid [27], the BPR is 0.1.
Consider `CCS(=O)(=O)C[C@H](COc1ccc(-n2cnn3cc(-c4ncc(Cl)cn4)cc3c2=O)cc1OC)OC(=O)CN`, for which the concentration worked out at 125 nM with Brain [29] and 3960 nM with Plasma [31]. The BPR in the data set with Nucleic Acid [30] stood at 0.03.
With `CCS(=O)(=O)C[C@H](COc1ccc(-n2cnn3cc(-c4ccc(Cl)cn4)cc3c2=O)cc1OC)OC(=O)CN`, the concentration in the data set on Plasma [32] is 15600 nM; with Brain [33], 401 nM. For the same compound, the BPR in the data set on Nucleic Acid [34] came out at 0.03.
